From patent publication US20110166121A1 (LG LIFE SCIENCES LTD., priority 2008, published 2011)
pKi: −log10 of the molar value. Structures can show the parent of a compound that is named as a salt.

Test system: Human platelet aggregation caused by ADP
Assay: Inhibition of ADP-induced platelet aggregation (Mimic-human PRP)
Assay type: cell-based
Conditions: 20 μM ADP, human platelet concentrate diluted with PPP, absorption at 595 nm
Experimental: Platelet Preparation for Aggregation Studies
Human platelet aggregation reaction test is a functional experiment method to verify whether a test compound is an agonist or an antagonist to ADP receptor. […] The platelet product isolated from whole blood was purchased from Chung-Nam blood center (Dae-joen, South Korea). The platelet was isolated from 400 mL of whole blood containing 56 mL of CPDA-1 anticoagulant. To isolate the platelet product, 400 mL of whole blood was centrifuged at 260×g for 5 minutes, and then obtained PRP (platelet rich plasma) was secondary centrifuged at 370×g for 6 minutes. Platelet pellet (10^9/mL) was suspended with 45 mL of plasma and then agitated over 1 hour at 22° C. blood reservoir to stabilize it. The stabilized platelet product was used in the experiment within 24 hours. PCs (Platelet Concentrates) were gently transferred to a new 50 ml-falcon tube. The number of platelet was counted by using animal blood counter (ABC Vet, ABX diagnostics, France). The volume of 30 mL of PCs collected from same donor was centrifuged at 1500 g for 10 min at room temperature to prepare platelet-poor plasma (PPP). The platelet count was adjusted to platelet number of 3˜4×10^8/mL by diluting with PPP.
Evaluation on Inhibitory Effect of ADP-Induced Aggregation
Inhibition of ADP-induced aggregation was determined in 96-well flat-bottom plates (Costar, USA) at room temperature. The diluted platelet was aliquoted into each well of 96 well plate in the volume of 188 μl. […] The platelet including test compounds was immediately mixed on a shaker at 1050 rpm for 1 min and incubated at room temperature for 20 min. Then, 10 μL volume of 400 μM ADP was added: the final concentration of 20 μM ADP in the total reaction volume of 0.2 mL/well. After shaking of the plate at room temperature for 3 min, the absorption of the samples was determined at 595 nm using a microtiter plate reader (Softmax, Molecular Devices).
A dose-dependent curve on serial dilutions of ADP was accomplished by adding vehicle (DMSO) instead of antagonists in order to calculate EC50 of ADP. Inhibition of aggregation was calculated from the increase of absorption at 595 nm at 3 min of the reaction incubation, compared to results of absorption between the 0 and 20 μM ADP control without antagonists. Sigmoidal dose-response curves and Ki were derived by non-linear regression analysis using the Prism software (GraphPad, San Diego Calif.).

CCCC(=O)N1CCN(c2nc(N3CCn4c(nnc4C(F)(F)F)C3)c3cc(CCC)sc3n2)CC1 [Example 7-15, Hydrochloric acid salt of 1-{4-[6-Propyl-4-(3-trifluoromethyl-5,6-dihydro-8H-[1,2,4]triazolo[4,3-a]pyrazin-7-yl)-thieno[2,3-d]pyrimidin-2-yl]-piperazin-1-yl}-butan-1-one]
pKi: 6.22

CCCc1cc2c(N3CCn4c(nnc4C(F)(F)F)C3)nc(N3CCN(C(=O)C(C)C)CC3)nc2s1 [Example 7-16, Hydrochloric acid salt of 2-Methyl-1-{4-[6-propyl-4-(3-trifluoromethyl-5,6-dihydro-8H-[1,2,4]triazolo[4,3-a]pyrazin-7-yl)-thieno[2,3-d]pyrimidin-2-yl]-piperazin-1-yl}-propan-1-one]
pKi: 6.23

CCCc1cc2c(N3CCn4c(nnc4C(F)(F)F)C3)nc(N3CC(O)C(NC(C)=O)C3)nc2s1 (stereo not shown) [Example 7-17, N-{4-Hydroxy-1-[6-propyl-4-(3-trifluoromethyl-5,6-dihydro-8H-[1,2,4]triazolo[4,3-a]pyrazin-7-yl)-thieno[2,3-d]pyrimidin-2-yl]-pyrrolidin-3-yl}-acetamide]
pKi: 8.55

CCCc1cc2c(N3CCn4c(nnc4C(F)(F)F)C3)nc(N3CC(NC(C)=O)C(OC(C)=O)C3)nc2s1 (stereo not shown) [Example 7-18, Acetic acid 4-acetylamino-1-[6-propyl-4-(3-trifluoromethyl-5,6-dihydro-8H-[1,2,4]triazolo[4,3-a]pyrazin-7-yl)-thieno[2,3-d]pyrimidin-2-yl]-pyrrolidin-3-yl ester]
pKi: 8.19

CCCC(=O)NC1CN(c2nc(N3CCn4c(nnc4C(F)(F)F)C3)c3cc(CCC)sc3n2)CC1O (stereo not shown) [Example 7-19, N-{4-Hydroxy-1-[6-propyl-4-(3-trifluoromethyl-5,6-dihydro-8H-[1,2,4]triazolo[4,3-a]pyrazin-7-yl)-thieno[2,3-d]pyrimidin-2-yl]-pyrrolidin-3-yl}-butyramide]
pKi: 8.30

CCCc1cc2c(N3CCn4c(nnc4C(F)(F)F)C3)nc(N3CC(O)C(NC(=O)C(C)C)C3)nc2s1 (stereo not shown) [Example 7-20, N-{4-Hydroxy-1-[6-propyl-4-(3-trifluoromethyl-5,6-dihydro-8H-[1,2,4]triazolo[4,3-a]pyrazin-7-yl)-thieno[2,3-d]pyrimidin-2-yl]-pyrrolidin-3-yl}-isobutyramide]
pKi: 8.32

CCCc1cc2c(N3CCn4c(nnc4C(F)(F)F)C3)nc(N3CC(O)C(NC(=O)C(C)(C)C)C3)nc2s1 (stereo not shown) [Example 7-21, N-{4-Hydroxy-1-[6-propyl-4-(3-trifluoromethyl-5,6-dihydro-8H-[1,2,4]triazolo[4,3-a]pyrazin-7-yl)-thieno[2,3-d]pyrimidin-2-yl]-pyrrolidin-3-yl}-2,2-dimethyl-propionamide]
pKi: 7.68

CCCc1cc2c(N3CCn4c(nnc4C(F)(F)F)C3)nc(N3CC(O)C(NC(=O)CO)C3)nc2s1 (stereo not shown) [Example 7-22, 2-Hydroxy-N-{4-hydroxy-1-[6-propyl-4-(3-trifluoromethyl-5,6-dihydro-8H-[1,2,4]triazolo[4,3-a]pyrazin-7-yl)-thieno[2,3-d]pyrimidin-2-yl]-pyrrolidin-3-yl}-acetamide]
pKi: 8.40

CCCc1cc2c(N3CCn4c(nnc4C(F)(F)F)C3)nc(N3CC(O)C(NC(=O)C(C)(C)O)C3)nc2s1 (stereo not shown) [Example 7-23, 2-Hydroxy-N-{4-hydroxy-1-[6-propyl-4-(3-trifluoromethyl-5,6-dihydro-8H-[1,2,4]triazolo[4,3-a]pyrazin-7-yl)-thieno[2,3-d]pyrimidin-2-yl]-pyrrolidin-3-yl}-2-methyl-propionamide]
pKi: 7.92

CCCc1cc2c(N3CCn4c(nnc4C(F)(F)F)C3)nc(N3CC(O)C(NC(=O)C(C)(CO)CO)C3)nc2s1 (stereo not shown) [Example 7-24, 3-Hydroxy-2-hydroxymethyl-N-{4-hydroxy-1-[6-propyl-4-(3-trifluoromethyl-5,6-dihydro-8H-[1,2,4]triazolo[4,3-a]pyrazin-7-yl)-thieno[2,3-d]pyrimidin-2-yl]-pyrrolidin-3-yl}-2-methyl-propionamide]
pKi: 7.82

CCCc1cc2c(N3CCn4c(nnc4C(F)(F)F)C3)nc(N3CC(O)C(NC(=O)C(C)(C)CO)C3)nc2s1 (stereo not shown) [Example 7-25, 3-Hydroxy-N-{4-hydroxy-1-[6-propyl-4-(3-trifluoromethyl-5,6-dihydro-8H-[1,2,4]triazolo[4,3-a]pyrazin-7-yl)-thieno[2,3-d]pyrimidin-2-yl]-pyrrolidin-3-yl}-2,2-dimethyl-propionamide]
pKi: 7.74

CCCc1cc2c(N3CCn4c(nnc4C(F)(F)F)C3)nc(N3CC4OC(=O)N[C@H]4C3)nc2s1 (stereo partly drawn) [Example 7-26, (S)-5-[6-Propyl-4-(3-trifluoromethyl-5,6-dihydro-8H-[1,2,4]triazolo[4,3-a]pyrazin-7-yl)-thieno[2,3-d]pyrimidin-2-yl]-hexahydro-pyrrolo[3,4-d]oxazol-2-one]
pKi: 8.68

CCCc1cc2c(N3CCn4c(nnc4C(F)(F)F)C3)nc(N3CC(N)C(N)C3)nc2s1 (stereo not shown) [Example 7-27, Di-hydrochloric acid salt of 1-[6-Propyl-4-(3-trifluoromethyl-5,6-dihydro-8H-[1,2,4]triazolo[4,3-a]pyrazin-7-yl)-thieno[2,3-d]pyrimidin-2-yl]-pyrrolidine-3,4-diamine]
pKi: 7.77

CCCc1cc2c(N3CCn4c(nnc4C(F)(F)F)C3)nc(N3CC(NC(C)=O)C(NC(C)=O)C3)nc2s1 (stereo not shown) [Example 7-28, N-{4-Acetylamino-1-[6-propyl-4-(3-trifluoromethyl-5,6-dihydro-8H-[1,2,4]triazolo[4,3-a]pyrazin-7-yl)-thieno[2,3-d]pyrimidin-2-yl]-pyrrolidin-3-yl}-acetamide]
pKi: 7.38

CCCc1cc2c(N3CCn4c(nnc4C(F)(F)F)C3)nc(OCCNC(C)=O)nc2s1 [Example 7-29, N-{2-[6-Propyl-4-(3-trifluoromethyl-5,6-dihydro-8H-[1,2,4]triazolo[4,3-a]pyrazin-7-yl)-thieno[2,3-d]pyrimidin-2-yloxy]-ethyl}-acetamide]
pKi: 8.51

CCCC(=O)NCCOc1nc(N2CCn3c(nnc3C(F)(F)F)C2)c2cc(CCC)sc2n1 [Example 7-30, N-{2-[6-Propyl-4-(3-trifluoromethyl-5,6-dihydro-8H-[1,2,4]triazolo[4,3-a]pyrazin-7-yl)-thieno[2,3-d]pyrimidin-2-yloxy]-ethyl}-butyramide]
pKi: 8.14

CCCc1cc2c(N3CCn4c(nnc4C(F)(F)F)C3)nc(OCCNC(=O)C(C)C)nc2s1 [Example 7-31, N-{2-[6-Propyl-4-(3-trifluoromethyl-5,6-dihydro-8H-[1,2,4]triazolo[4,3-a]pyrazin-7-yl)-thieno[2,3-d]pyrimidin-2-yloxy]-ethyl}-isobutyramide]
pKi: 7.92

CCCc1cc2c(N3CCn4c(nnc4C(F)(F)F)C3)nc(OCCNC(=O)CO)nc2s1 [Example 7-32, 2-Hydroxy-N-{2-[6-propyl-4-(3-trifluoromethyl-5,6-dihydro-8H-[1,2,4]triazolo[4,3-a]pyrazin-7-yl)-thieno[2,3-d]pyrimidin-2-yloxy]-ethyl}-acetamide]
pKi: 9.10

CCCc1cc2c(N3CCn4c(nnc4C(F)(F)F)C3)nc(OCCNC(=O)C(C)(C)O)nc2s1 [Example 7-33, 2-Hydroxy-2-methyl-N-{2-[6-propyl-4-(3-trifluoromethyl-5,6-dihydro-8H-[1,2,4]triazolo[4,3-a]pyrazin-7-yl)-thieno[2,3-d]pyrimidin-2-yloxy]-ethyl}-propionamide]
pKi: 8.17

CCCc1cc2c(N3CCn4c(nnc4C(F)(F)F)C3)nc(OCCNC(=O)C(C)(CO)CO)nc2s1 [Example 7-34, 3-Hydroxy-2-hydroxymethyl-2-methyl-N-{2-[6-propyl-4-(3-trifluoromethyl-5,6-dihydro-8H-[1,2,4]triazolo[4,3-a]pyrazin-7-yl)-thieno[2,3-d]pyrimidin-2-yloxy]-ethyl}-propionamide]
pKi: 7.80

CCCc1cc2c(N3CCn4c(nnc4C(F)(F)F)C3)nc(OCCNC(=O)C(C)(C)CO)nc2s1 [Example 7-35, 3-Hydroxy-2,2-dimethyl-N-{2-[6-propyl-4-(3-trifluoromethyl-5,6-dihydro-8H-[1,2,4]triazolo[4,3-a]pyrazin-7-yl)-thieno[2,3-d]pyrimidin-2-yloxy]-ethyl}-propionamide]
pKi: 8.00

CCCc1cc2c(N3CCn4c(nnc4C(F)(F)F)C3)nc(OC[C@H]3CCCN3)nc2s1 [Example 7-36, Hydrochloric acid salt of 7-[6-Propyl-2-((R)-1-pyrrolidin-2-ylmethoxy)-thieno[2,3-d]pyrimidin-4-yl]-3-trifluoromethyl-5,6,7,8-tetrahydro-[1,2,4]triazolo[4,3-a]pyrazine]
pKi: 7.00
